Data on two molecules can be found in patent US20030099613A1, “Viral replicons and viruses dependent on inducing agents” (priority 1999, published 2003).

The subject of this assay is dox-dependent SWS virus. As to the kind of experiment: Sensitivity of HIV-rtTA (SWS) replication to antiretroviral drugs in SupT1 cells. The format is cell-based, HIV-1. The settings on record: infected SupT1 cells maintained in the presence of dox. Here is the method: FIG. 4. Replication of HIV-rtTA can be turned on and turned off. These experiments were performed with the SWS virus, but similar results have been obtained with the other HIV-rtTA variants. The SWS virus was used (2200 ng CA-p24) to infect 6×10^6 SupT1 cells at day 0. […] In panel B, the effect of delayed addition of dox (1000 ng/ml) was analyzed at day 3 after infection. In panel C, the infected cells were grown in 1000 ng/ml dox for 3 days, at which point the cells were washed and incubated in the absence or presence of dox. In panel D, infected cells were maintained in the presence of dox and the effect of the Protease-inhibitor Saquinavir (200 nM) and the RT-inhibitor AZT ([…]) was tested.
As an additional safety test, the sensitivity of the HIV-rtTA virus to antiretroviral drugs that are in current clinical use was analyzed. Because the basic set of viral genes in HIV-rtTA was not altered, including the genes encoding Protease (Pro) and Reverse Transcriptase (RT), these viruses are expected to remain fully sensitive to well-known drugs that target these essential enzymes.

For `Cc1cn([C@H]2C[C@H](N=[N+]=[N-])[C@@H](CO)O2)c(=O)[nH]c1=O` [AZT, 3′-azido, 3′-deoxythymidine], where the note is “AZT 1 μg”, the “inhibition of SWS virus replication” value is “inhibited efficiently”.
For `CC(C)(C)NC(=O)[C@@H]1C[C@@H]2CCCC[C@@H]2CN1C[C@@H](O)[C@H](Cc1ccccc1)NC(=O)[C@H](CC(N)=O)NC(=O)c1ccc2ccccc2n1` [Saquinavir], where the note is “Saquinavir 200 nM”, the “inhibition of SWS virus replication” value is given as “inhibited efficiently”.
